Data reported in patent publication US9133439B2, “Differentiation of human embryonic stem cells” (Janssen Biotech, Inc., priority 2009, dated 2015).
Where “and” joins values, the source holds several entries; their conditions need not be identical. Equal entries are not always repeated. Where two headings read alike, the source gives them in different places.

What was measured:
[1] = system: H1 human embryonic stem cells (differentiated); type: cell-based
[2] = system: H1 human embryonic stem cells (differentiated); experiment: Example 3: confirmation screen, total cell number (nuclei) by high content analysis; type: cell-based; details: relative to control treatment
From the text: All wells were fed and treated identically.

[3] = ratio for well treated with individual compound relative to average of wells with DMSO alone
[4] = 2.5 uM, steps 3 and 4, triplicate

Compound	Total Nuclei [1, 3]	further results
O=C(O)c1ccc2nc(-c3ccccc3)c(-c3ccccc3)nc2c1 [BML-257]	0.98	–
O.O.O=c1c(O)c(-c2ccc(O)c(O)c2)oc2cc(O)cc(O)c12 [Quercetin dihydrate]	0.97	–
COC[C@H]1OC(=O)c2coc3c2[C@@]1(C)C1=C(C3=O)[C@@H]2CCC(=O)[C@@]2(C)C[C@H]1OC(C)=O [Wortmannin]	1.10	–
Cn1cnc2nc(NCCO)nc(NCc3ccccc3)c21 [iso-Olomoucine]	1.04	–
CCCCCCCCCCCCC/C=C/[C@@H](O)[C@@H](N)CO [Sphingosine]	1.04	–
N#CC(C#N)=Cc1ccc([N+](=O)[O-])c(O)c1 [AG-126]	0.99	–
O=c1c(-c2ccc(O)cc2)coc2cc(O)ccc12 [Daidzein]	1.03	–
N#C/C(=C\c1cc(Cl)cc(Cl)c1)c1cccnc1 [RG-14620]	1.02	–
CC(=O)c1c(O)c(C)c(O)c(Cc2c(O)c3c(c(C(=O)/C=C/c4ccccc4)c2O)OC(C)(C)C=C3)c1O [Rottlerin]	0.24	–
CN([C@@H](Cc1ccc(OS(=O)(=O)c2cccc3cnccc23)cc1)C(=O)N1CCN(c2ccccc2)CC1)S(=O)(=O)c1cccc2cnccc12 [KN-62]	0.96	Total Nuclei Ratio ([2]; 1 uM, steps 3 and 4): 1.02 and 1.03
N#CC(=Cc1ccc2[nH]ccc2c1)C(N)=C(C#N)C#N [AG-370]	1.01	–
N#CC(=C(/N)Sc1ccccc1N)/C(C#N)=C(\N)Sc1ccccc1N [U-0126]	–	Total Nuclei [1]: 0.87
CO[C@@H]1[C@H](N(C)C(=O)c2ccccc2)C[C@H]2O[C@]1(C)n1c3ccccc3c3c4c(c5c6ccccc6n2c5c31)C(=O)NC4 [PKC-412]	0.17	–
Cc1ccc(NC(=O)c2cccc(N(C)C)c2)cc1NC(=O)c1ccc(O)cc1 [ZM 336372]	1.06	–
CN(C)CCCn1cc(C2=C(c3c[nH]c4ccccc34)C(=O)NC2=O)c2ccccc21 [GF 109203X]	1.05	Total Nuclei Ratio [2, 4]: 0.82
Cn1cnc2c(NCc3ccccc3)nc(NCCO)nc21 [Olomoucine]	1.04	–
CC(C)n1cnc2c(NCc3ccccc3)nc(NCCO)nc21 [N9-Isopropyl-olomoucine]	1.05	–
COc1cccc(-c2cc(=O)c3ccccc3o2)c1N [PD-98059]	0.92	Total Nuclei Ratio [2, 4]: 0.96
Cl.O=S(=O)(c1cccc2c(Cl)cccc12)N1CCCNCC1 [ML-9]	1.06	–
Oc1c2ccccc2c2c3c(cccc13)N=N2 [SP 600125]	1.04	–
N#C/C(=C\c1ccc(O)c(O)c1)C(=O)Nc1ccccc1 [AG-494]	1.10	–
Cl.Cl.O=S(=O)(NCCNC/C=C/c1ccc(Br)cc1)c1cccc2cnccc12 [H-89]	1.09	Total Nuclei Ratio [2, 4]: 1.08
N#C/C(=C\c1ccc(O)c(O)c1)C(N)=O [Tyrphostin 46]	1.05	–
CC1CNCCN1S(=O)(=O)c1cccc2cnccc12 (stereo not shown) [H-7]	1.02	Total Nuclei Ratio [2, 4]: 1.09
O=S(=O)(c1cccc2cnccc12)N1CCCNCC1 [HA-1077]	1.02	Total Nuclei Ratio [2, 4]: 1.07
O=P(O)(O)C(O)c1ccc2ccccc2c1 (stereo not shown) [HNMPA, Hydroxy-2-naphthalenylmethylphosphonic acid]	1.01	–

Compound	Total Nuclei [1, 3]	further results
O=c1c(-c2ccc(O)cc2)coc2cc(O)cc(O)c12 [Genistein]	1.03	–
O=C(O)c1cc(NCc2cc(O)ccc2O)ccc1O [HDBA, 2-Hydroxy-5-(2,5-dihydroxybenzylamino)benzoic acid]	0.99	–
O=C1Cc2c([nH]c3ccc(Br)cc23)-c2ccccc2N1 [Kenpaullone]	0.99	Total Nuclei Ratio [2, 4]: 1.02
CC(C)(C)c1cc(C=C(C#N)C#N)cc(C(C)(C)C)c1O [Tyrphostin 9]	0.28	–
NC(N)=NCCNS(=O)(=O)c1cccc2cnccc12 [HA-1004]	1.08	Total Nuclei Ratio [2, 4]: 1.08
CC(C)c1cnc(NC(=O)Cc2ccccc2)s1 [BML-259]	1.04	Total Nuclei Ratio [2, 4]: 0.99
Cc1cc2ncc(-c3ccccc3)nc2cc1C [Tyrphostin AG 1295]	1.08	–
Indirubin-3′-monoxime	0.96	–
Nc1ncnc2c1c(I)cn2[C@@H]1O[C@H](CO)[C@@H](O)[C@H]1O [5-Iodotubercidin]	0.08	–
COc1cc2ncnc(Nc3cccc(Cl)c3)c2cc1OC [Tyrphostin AG 1478]	1.10	–
CC(C)(C)n1nc(-c2ccc(Cl)cc2)c2c(N)ncnc21 [PP2]	1.01	–
CS(=O)(=O)O.Cn1cc(C2=C(c3cn(CCCSC(=N)N)c4ccccc34)C(=O)NC2=O)c2ccccc21 [Ro 31-8220]	0.09	–
COc1cc(/C=C(\C#N)C(N)=O)cc(CSc2nc3ccccc3s2)c1O [AG-825]	1.05	–
N#C/C(=C/c1ccc(O)c(O)c1)C(=O)NCc1ccccc1 [AG-490]	1.04	Total Nuclei Ratio [2, 4]: 0.99
COc1cc2ncc(-c3ccccc3)nc2cc1OC [AG-1296]	1.09	–
O=C1Nc2ccccc2/C1=C1/Nc2ccccc2C1=O [Indirubin]	1.01	–
O=c1cc(-c2ccc(O)cc2)oc2cc(O)cc(O)c12 [Apigenin]	1.05	–
CC(C)c1cc(/C=C(\C#N)C(=O)NCCCc2ccccc2)cc(C(C)C)c1O [SU1498]	1.01	–
Nc1ncc2[nH]cnc2n1 [2-Aminopurine]	1.07	–
CNCCNS(=O)(=O)c1cccc2cnccc12 [H-8]	0.99	–
C/C(O)=C(\C#N)C(=O)Nc1cc(Br)ccc1Br [LFM-A13]	0.97	–
O=C(O)c1cc(N(Cc2ccccc2O)Cc2cc(O)ccc2O)ccc1O [Lavendustin A]	1.02	–
COC(=O)/C=C/c1cc(O)ccc1O [Erbstatin analog]	0.82	–
CO[C@H]1C[C@@H]2CC[C@@H](C)[C@@](O)(O2)C(=O)C(=O)N2CCCC[C@H]2C(=O)O[C@H]([C@H](C)C[C@@H]2CC[C@@H](O)[C@H](OC)C2)CC(=O)[C@H](C)/C=C(\C)[C@@H](O)[C@@H](OC)C(=O)[C@H](C)C[C@H](C)/C=C/C=C/C=C/1C [Rapamycin]	0.47	–
O=c1cc(N2CCOCC2)oc2c(-c3ccccc3)cccc12 [LY 294002]	1.08	Total Nuclei Ratio [2, 4]: 1.03
CC1=C(O)C(=O)[C@@H]2O[C@@H]2C1=O [Terreic acid]	1.02	–

Compound	Total Nuclei [1, 3]	further results
COCc1cc(O)c(O)c(O)c1-c1c(COC)cc(O)c(O)c1O [HBDDE, 2,2′,3,3′,4,4′-Hexahydroxy-1,1′-biphenyl-6,6′-dimethanol dimethyl ether]	1.07	–
C=CC(=O)c1ccc2ccccc2c1 [ZM 449829]	1.01	–
O=S(=O)(c1cccc2c(I)cccc12)N1CCCNCC1 [ML-7]	0.98	–
OC[C@H]1O[C@@H](n2cnc3cc(Cl)c(Cl)cc32)[C@H](O)[C@@H]1O [DRB, 5,6-Dichloro-1-b-D-ribofuranosylbenzimidazole]	1.01	–
N#CC(C#N)=Cc1cc(O)c(O)c([N+](=O)[O-])c1 [Tyrphostin AG 1288]	1.04	–
N#C/C(=C\c1ccc(O)c(O)c1)C(N)=S [Tyrphostin 47]	1.00	–
NCCNS(=O)(=O)c1cccc2cnccc12 [H-9]	1.00	Total Nuclei Ratio [2, 4]: 1.13
COc1ccc(S(=O)(=O)N(CCO)c2ccccc2CN(C)CC=Cc2ccc(Cl)cc2)cc1 [KN-93]	1.04	Total Nuclei Ratio ([2]; 1 uM, steps 3 and 4): 1.05 and 1.04
Oc1cc(O)cc(/C=C/c2ccc(O)c(O)c2)c1 [Piceatannol]	1.07	–
Cc1ccc(-c2nn(C(C)(C)C)c3ncnc(N)c23)cc1 [PP1]	0.99	–
CN[C@@H]1C[C@H]2O[C@@](C)([C@@H]1OC)n1c3ccccc3c3c4c(c5c6ccccc6n2c5c31)C(=O)NC4 [Staurosporine]	0.13	–
O=C1Nc2ccc(I)cc2/C1=C/c1cc(Br)c(O)c(Br)c1 [GW 5074]	1.06	Total Nuclei Ratio [2, 4]: 1.11
CN(C)c1ccc(C=C2C(=O)Nc3ccccc32)cc1 [SU 4312]	1.07	–
N#CC(C#N)=Cc1ccc(O)c(O)c1 [Tyrphostin 23]	1.03	–
C[S+]([O-])c1ccc(-c2nc(-c3ccc(F)cc3)c(-c3ccncc3)[nH]2)cc1 (stereo not shown) [SB-203580]	1.07	Total Nuclei Ratio [2, 4]: 1.05
Cc1cc(O)c2c(=O)c3c(O)cc(O)c4c5c(O)cc(O)c6c(=O)c7c(O)cc(C)c8c1c2c(c34)c(c78)c65 [Hypericin]	1.07	–
Oc1ccc(-c2nc(-c3ccc(F)cc3)c(-c3ccncc3)[nH]2)cc1 [SB-202190]	1.08	Total Nuclei Ratio [2, 4]: 1.08
C#Cc1cccc(Nc2ncnc3cc(OC)c(OC)cc23)c1 [BML-265]	1.06	Total Nuclei Ratio [2, 4]: 0.97
C[C@@H](N)[C@H]1CC[C@H](C(=O)Nc2ccncc2)CC1 [Y-27632]	1.08	–
CC[C@H](CO)Nc1nc(NCc2ccccc2)c2ncn(C(C)C)c2n1 [Roscovitine]	1.03	–
N#CC(C#N)=Cc1cc(O)c(O)c(O)c1 [Tyrphostin 25]	1.02	–
CCCCCCCCCCCCCCCC(=O)OC(CC(=O)O)C[N+](C)(C)C.[Cl-] (racemic) [Palmitoyl-DL-carnitine Cl]	1.05	–
CC(C)(C)c1cc(/C=C(\C#N)C(N)=S)cc(C(C)(C)C)c1O [AG-879]	1.03	–
Cc1ccc(S(=O)(=O)/C=C/C#N)cc1 [BAY 11-7082]	0.93	–
N#CC(C#N)=C(N)/C(C#N)=C/c1cc(O)c(O)c(O)c1 [Tyrphostin 51]	1.04	–
